Results taken from paper PMC11338861, “Assessment of the potential risk of oteseconazole and two other tetrazole antifungals to inhibit adrenal steroidogenesis and peripheral metabolism of corticosteroids” (Frontiers in Pharmacology, 2024).

Assays:
[1] = biological target: T1, CYP11B1 (Homo sapiens, UniProt P15538); experiment: mitochondrial fraction of V79-CYP11B1 cells, 11-DOC to corticosterone, UHPLC-MS/MS; assay type: cell-based
T1 sequence (P15538 25-503): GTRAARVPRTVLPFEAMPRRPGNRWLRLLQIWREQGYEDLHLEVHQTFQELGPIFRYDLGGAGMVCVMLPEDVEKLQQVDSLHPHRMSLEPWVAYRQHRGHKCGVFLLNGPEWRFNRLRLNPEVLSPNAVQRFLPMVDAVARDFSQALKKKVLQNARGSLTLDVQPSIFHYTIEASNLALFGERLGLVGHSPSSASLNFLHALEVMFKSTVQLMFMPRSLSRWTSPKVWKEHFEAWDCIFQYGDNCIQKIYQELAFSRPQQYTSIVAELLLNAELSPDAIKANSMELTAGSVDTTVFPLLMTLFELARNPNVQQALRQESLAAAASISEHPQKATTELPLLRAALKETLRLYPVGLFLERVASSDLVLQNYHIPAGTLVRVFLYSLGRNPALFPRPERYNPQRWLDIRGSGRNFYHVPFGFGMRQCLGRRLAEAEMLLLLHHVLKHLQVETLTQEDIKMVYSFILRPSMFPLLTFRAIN

[2] = biological target: T2, CYP11A1 (Homo sapiens, UniProt P05108); experiment: mitochondrial fraction of transfected V79-4 cells, pregnenolone ELISA; assay type: cell-based
T2 sequence (P05108 40-521): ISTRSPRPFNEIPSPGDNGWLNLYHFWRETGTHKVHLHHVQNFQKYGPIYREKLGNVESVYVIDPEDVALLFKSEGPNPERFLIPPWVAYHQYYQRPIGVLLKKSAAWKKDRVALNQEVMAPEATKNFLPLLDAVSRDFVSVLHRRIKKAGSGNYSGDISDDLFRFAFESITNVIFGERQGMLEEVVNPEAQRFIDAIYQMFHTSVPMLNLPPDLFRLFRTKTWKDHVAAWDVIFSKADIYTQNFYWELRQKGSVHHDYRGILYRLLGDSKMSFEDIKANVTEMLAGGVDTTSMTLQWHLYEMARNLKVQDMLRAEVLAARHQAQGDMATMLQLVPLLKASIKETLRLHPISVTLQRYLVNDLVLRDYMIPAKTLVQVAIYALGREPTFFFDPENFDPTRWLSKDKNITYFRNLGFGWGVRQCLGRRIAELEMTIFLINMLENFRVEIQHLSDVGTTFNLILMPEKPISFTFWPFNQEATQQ
T2 sequence (P10109 61-184 partner): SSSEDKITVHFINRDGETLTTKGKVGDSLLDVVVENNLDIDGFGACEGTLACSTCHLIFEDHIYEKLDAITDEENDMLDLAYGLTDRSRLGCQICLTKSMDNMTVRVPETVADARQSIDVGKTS

[3] = biological target: T3, CYP21A2 (Homo sapiens, UniProt P08686); experiment: cell-free activity assay, microsomes of transfected COS-1 cells, progesterone to 11-DOC; assay type: biochemical
T3 sequence (P08686 1-495): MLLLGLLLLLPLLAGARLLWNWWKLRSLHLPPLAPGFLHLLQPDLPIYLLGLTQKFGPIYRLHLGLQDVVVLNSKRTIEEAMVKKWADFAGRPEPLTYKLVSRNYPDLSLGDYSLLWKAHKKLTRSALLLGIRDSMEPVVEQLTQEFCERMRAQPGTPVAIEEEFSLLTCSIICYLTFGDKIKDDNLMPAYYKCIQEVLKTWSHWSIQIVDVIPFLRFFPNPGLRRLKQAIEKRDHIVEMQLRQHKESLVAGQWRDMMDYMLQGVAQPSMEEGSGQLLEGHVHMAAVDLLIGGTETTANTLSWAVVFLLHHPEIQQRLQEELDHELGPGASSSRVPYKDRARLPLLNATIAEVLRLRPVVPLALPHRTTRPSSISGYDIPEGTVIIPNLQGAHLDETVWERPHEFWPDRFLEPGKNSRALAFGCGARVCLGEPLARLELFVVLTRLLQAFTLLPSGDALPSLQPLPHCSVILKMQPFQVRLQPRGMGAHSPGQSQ
T3 sequence (P16435 2-677 partner): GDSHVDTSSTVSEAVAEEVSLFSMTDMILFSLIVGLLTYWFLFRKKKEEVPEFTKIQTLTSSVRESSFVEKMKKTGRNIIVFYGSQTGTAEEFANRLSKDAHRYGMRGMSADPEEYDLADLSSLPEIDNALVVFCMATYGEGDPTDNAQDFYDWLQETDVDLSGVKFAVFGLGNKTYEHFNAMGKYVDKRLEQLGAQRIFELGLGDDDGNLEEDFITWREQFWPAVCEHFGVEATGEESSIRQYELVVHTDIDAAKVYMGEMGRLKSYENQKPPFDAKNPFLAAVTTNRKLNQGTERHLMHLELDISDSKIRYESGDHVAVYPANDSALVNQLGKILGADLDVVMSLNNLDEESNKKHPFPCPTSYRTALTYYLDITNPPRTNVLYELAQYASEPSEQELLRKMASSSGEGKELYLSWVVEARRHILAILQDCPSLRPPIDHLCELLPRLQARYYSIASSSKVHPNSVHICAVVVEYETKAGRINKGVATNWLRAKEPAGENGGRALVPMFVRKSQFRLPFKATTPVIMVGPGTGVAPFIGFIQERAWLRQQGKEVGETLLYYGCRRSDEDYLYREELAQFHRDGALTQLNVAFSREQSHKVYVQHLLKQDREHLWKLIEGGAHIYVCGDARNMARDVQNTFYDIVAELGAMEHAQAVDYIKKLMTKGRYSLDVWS

[4] = biological target: T4, CYP17A1 (Homo sapiens, UniProt P05093); experiment: […]α-hydroxylase activity, microsomes of transfected COS-1 cells, radiolabeled progesterone, TLC ([…],20-lyase IC50 […]); assay type: biochemical
T4 sequence (P05093 1-508): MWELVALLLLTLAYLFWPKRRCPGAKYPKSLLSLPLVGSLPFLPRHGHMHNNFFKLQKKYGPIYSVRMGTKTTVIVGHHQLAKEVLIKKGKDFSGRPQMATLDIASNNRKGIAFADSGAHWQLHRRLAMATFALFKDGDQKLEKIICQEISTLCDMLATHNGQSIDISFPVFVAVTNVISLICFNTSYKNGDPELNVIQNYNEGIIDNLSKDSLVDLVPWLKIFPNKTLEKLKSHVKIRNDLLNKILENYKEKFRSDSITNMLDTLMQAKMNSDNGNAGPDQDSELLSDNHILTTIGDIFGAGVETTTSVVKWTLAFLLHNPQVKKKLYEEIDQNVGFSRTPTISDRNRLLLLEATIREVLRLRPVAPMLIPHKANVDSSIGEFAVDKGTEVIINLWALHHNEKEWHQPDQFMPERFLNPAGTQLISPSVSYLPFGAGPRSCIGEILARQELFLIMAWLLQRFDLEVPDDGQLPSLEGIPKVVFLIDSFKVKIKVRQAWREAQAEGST
T4 sequence (P16435 2-677 partner): T3 sequence (P16435 2-677 partner)

CC(=O)N1CCN(c2ccc(OC[C@H]3CO[C@](Cn4ccnc4)(c4ccc(Cl)cc4Cl)O3)cc2)CC1 (racemic) [ketoconazole, reference compound]
mitochondrial fraction of V79-CYP11B1 cells, 11-DOC to corticosterone, UHPLC-MS/ [1]: measuring the conversion of 11-DOC to corticosterone, with ketoconazole serving as positive control | inhibition at 10 µM [2]: ~55%

O[C@@](Cn1cnnn1)(c1ccc(F)cc1F)C(F)(F)c1ccc(-c2ccc(OCC(F)(F)F)cc2)cn1 [oteseconazole]
IC50 [3]: 13.8 ± 1.9 µM | IC50 [4]: 13.2 ± 3.9 µM | inhibition at 10 µM [2]: ~35%

O[C@@](Cn1cnnn1)(c1ccc(F)cc1F)C(F)(F)c1ccc(-c2ccc(OC(F)(F)F)cc2)cn1 [quilseconazole]
inhibition at 10 µM [2]: ~45%
